From the NIST ThermoML archive (doi:10.1016/j.jct.2013.06.022)
Several values for one entry are separate records, joined by “and”; a condition that tells them apart may be missing. Equal entries are not always repeated. ± gives the expanded uncertainty stated by the source.

Experiments:
[1] = Crystal; for vapor or sublimation pressure: Calculated from knudsen effusion weight loss; for Normal melting temperature: DTA
[2] = Molar enthalpy of transition or fusion; conditions: Crystal; DSC

COc1ccccc1C(N)=O [2-methoxybenzamide]
[1]
Conditions	vapor or sublimation pressure
335.12 K	0.0001 ± 5e-06 kPa and 0.000101 ± 5e-06 kPa
337.18 K	0.000126 ± 6e-06 kPa and 0.000124 ± 6e-06 kPa
339.16 K	0.000155 ± 8e-06 kPa and 0.000153 ± 8e-06 kPa
341.12 K	0.000198 ± 1e-05 kPa and 0.000195 ± 1e-05 kPa
343.16 K	0.000248 ± 1.2e-05 kPa and 0.000241 ± 1.2e-05 kPa and 0.000249 ± 1.2e-05 kPa
345.16 K	0.000305 ± 1.5e-05 kPa and 0.0003 ± 1.5e-05 kPa and 0.000309 ± 1.5e-05 kPa
347.11 K	0.000389 ± 1.9e-05 kPa and 0.000382 ± 1.9e-05 kPa and 0.000385 ± 1.9e-05 kPa
349.15 K	0.000486 ± 2.4e-05 kPa and 0.000474 ± 2.4e-05 kPa and 0.000483 ± 2.4e-05 kPa
351.16 K	0.000594 ± 3e-05 kPa and 0.000581 ± 2.9e-05 kPa
353.12 K	0.00075 ± 3.8e-05 kPa and 0.000738 ± 3.7e-05 kPa and 0.000736 ± 3.7e-05 kPa
355.17 K	0.000924 ± 4.6e-05 kPa and 0.000926 ± 4.6e-05 kPa and 0.00091 ± 4.6e-05 kPa
357.16 K	0.001122 ± 0.00012 kPa and 0.001121 ± 0.00012 kPa and 0.001106 ± 0.00011 kPa

Conditions	Molar enthalpy of transition or fusion [kcal/mol]	Normal melting temperature [°C]
[1]	–	128.51 ± 0.42
[2]	6.5 ± 0.153	–

COc1cccc(C(N)=O)c1 [3-methoxybenzamide]
[1]
Conditions	vapor or sublimation pressure
345.11 K	7.2e-05 ± 4e-06 kPa and 7.1e-05 ± 4e-06 kPa
347.12 K	9.2e-05 ± 5e-06 kPa and 8.8e-05 ± 4e-06 kPa
349.16 K	0.000112 ± 6e-06 kPa and 0.000117 ± 6e-06 kPa
351.12 K	0.000143 ± 7e-06 kPa and 0.000142 ± 7e-06 kPa
353.16 K	0.00018 ± 9e-06 kPa and 0.000175 ± 9e-06 kPa and 0.000178 ± 9e-06 kPa
355.16 K	0.000219 ± 1.1e-05 kPa and 0.000225 ± 1.1e-05 kPa
357.12 K	0.000283 ± 1.4e-05 kPa and 0.000287 ± 1.4e-05 kPa and 0.000286 ± 1.4e-05 kPa
359.16 K	0.000357 ± 1.8e-05 kPa and 0.000346 ± 1.7e-05 kPa
361.14 K	0.000432 ± 2.2e-05 kPa and 0.000428 ± 2.1e-05 kPa and 0.000443 ± 2.2e-05 kPa
363.13 K	0.00055 ± 2.8e-05 kPa and 0.000547 ± 2.7e-05 kPa and 0.000546 ± 2.7e-05 kPa
365.17 K	0.00068 ± 3.4e-05 kPa and 0.000682 ± 3.4e-05 kPa and 0.000658 ± 3.3e-05 kPa
367.13 K	0.000844 ± 4.2e-05 kPa and 0.000848 ± 4.2e-05 kPa and 0.000842 ± 4.2e-05 kPa
369.17 K	0.001047 ± 0.00011 kPa and 0.001014 ± 0.0001 kPa
371.15 K	0.001291 ± 0.00014 kPa and 0.001251 ± 0.00013 kPa and 0.00125 ± 0.00013 kPa

Conditions	Molar enthalpy of transition or fusion [kcal/mol]	Normal melting temperature [°C]
[1]	–	134.00 ± 0.41
[2]	6.84 ± 0.153	–

COc1ccc(C(N)=O)cc1 [4-methoxybenzamide]
[1]
Conditions	vapor or sublimation pressure
357.12 K	0.000103 ± 5e-06 kPa
359.19 K	0.000128 ± 6e-06 kPa and 0.000124 ± 6e-06 kPa
361.16 K	0.000156 ± 8e-06 kPa and 0.000154 ± 8e-06 kPa
363.12 K	0.000195 ± 1e-05 kPa and 0.000193 ± 1e-05 kPa
365.2 K	0.000242 ± 1.2e-05 kPa and 0.000238 ± 1.2e-05 kPa
367.16 K	0.000292 ± 1.5e-05 kPa and 0.00029 ± 1.5e-05 kPa and 0.000299 ± 1.5e-05 kPa
369.12 K	0.000366 ± 1.8e-05 kPa and 0.000368 ± 1.8e-05 kPa and 0.000367 ± 1.8e-05 kPa
371.18 K	0.000455 ± 2.3e-05 kPa and 0.000442 ± 2.2e-05 kPa and 0.000452 ± 2.3e-05 kPa
373.15 K	0.000548 ± 2.7e-05 kPa and 0.000535 ± 2.7e-05 kPa and 0.000556 ± 2.8e-05 kPa
375.11 K	0.000689 ± 3.4e-05 kPa and 0.000681 ± 3.4e-05 kPa and 0.000685 ± 3.4e-05 kPa
377.18 K	0.000833 ± 4.2e-05 kPa and 0.000838 ± 4.2e-05 kPa and 0.000812 ± 4.1e-05 kPa
379.15 K	0.001012 ± 0.0001 kPa and 0.000985 ± 4.9e-05 kPa and 0.000979 ± 4.9e-05 kPa

Conditions	Molar enthalpy of transition or fusion [kcal/mol]	Normal melting temperature [°C]
[1]	–	167.49 ± 0.4
[2]	6.94 ± 0.16	–
